Source: US20240398772A1, “OXASPIRO DERIVATIVE, AND PREPARATION METHOD THEREFOR AND USE THEREOF” (SHUJING BIOPHARMA CO., LTD, priority 2021, published 2024)

How the values were obtained:
MOR = biological target: T1, MOR (Homo sapiens, UniProt P35372); assay: Agonist test on MOR, cAMP level (CHO-K1/OP3 cells, cAMP assay kit); format: cell-based; conditions: for EC50: forskolin-stimulated cAMP, read-out: EC50 agonizing MOR receptor to affect cAMP level; for Emax: maximal effect of DAMGO is 100%, read-out: Emax agonizing MOR receptor to affect cAMP level
T1 construct: expressed in transfected cells; host or cells: CHO-K1/OP3 (name from the earlier reading)
T1 sequence (P35372 whole entry): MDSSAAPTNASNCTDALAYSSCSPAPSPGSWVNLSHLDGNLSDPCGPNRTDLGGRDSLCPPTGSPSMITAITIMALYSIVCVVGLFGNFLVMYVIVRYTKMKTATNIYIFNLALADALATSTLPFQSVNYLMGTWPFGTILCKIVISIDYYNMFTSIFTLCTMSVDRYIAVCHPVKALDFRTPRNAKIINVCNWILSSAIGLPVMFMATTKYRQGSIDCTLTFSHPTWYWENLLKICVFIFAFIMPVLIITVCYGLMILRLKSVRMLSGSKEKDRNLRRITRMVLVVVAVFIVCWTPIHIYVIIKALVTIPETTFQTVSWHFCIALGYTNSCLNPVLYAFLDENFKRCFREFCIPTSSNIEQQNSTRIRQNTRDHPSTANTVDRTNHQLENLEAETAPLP
Method: 5×stimulation buffer was diluted to 1× with ddH2O, an appropriate amount of 500 mM IBMX (generally, the IBMX stock solution was prepared to be 500 mM, namely 1000×) was added to enable the final concentration of the IBMX to be 0.5 mM, and the mixture was mixed well for later use (after the IBMX was added, that precipitation occurred was normal, and the precipitate was dissolved by well mixing). It must be prepared right before use.
1.3.1.2 IBMX was dissolved with DMSO to prepare a 500 mM stock solution, which was aliquoted into 20 μL/tube and cryopreserved at −80° C. to avoid repetition of freezing and thawing.
1.3.1.3 Forskolin was dissolved with DMSO to prepare a 10 mM stock solution, which was aliquoted into 20 μL/tube and cryopreserved at −20° C. for later use.
The CAMP standard substance in the kit returned to room temperature, and an equivalent amount of the experimental buffer was added according to the volume marked on the bottle label. The mixture was vortexed for mixing, aliquoted according to 50 μL/tube, and cryopreserved at −20° C. for later use.
5 mL ddH2O was added to a bottle of cAMP-d2 and a bottle of anti-cAMP-cryptate lyophilized powder, respectively, and the mixture was mixed well by gently turning the mixture upside down, aliquoted according to 125, 62.5, and 30 μL, and the like, and cryopreserved in the dark at −80° C.
1.3.2.1 Positive compound DAMGO and the test compound were serially diluted 4-fold to obtain 10 concentrations with Bravo using experimental buffer in a compound plate (Greiner-781280) at a starting concentration of 2 μM (from DMSO stock solution diluted with experimental buffer) and 20 μM (from DMSO stock solution diluted with experimental buffer), respectively.
1.3.2.2 Cells cryopreserved were thawed in a water bath at 37° C., the cell suspension was added to a centrifuge tube containing 10 mL of HBSS buffer, and the mixture was centrifuged at 750 rpm for 5 min. The supernatant was discarded, the pellet was resuspended in an appropriate amount of experimental buffer, and 20 μL of the pellet was counted using a cell counter. An appropriate amount of the cell suspension was diluted to 0.4×10^6 cells/mL, and 5 μL of the cell suspension was added to each well of a cell plate (the cell density was 2000 cells/well) and centrifuged at 1000 rpm for 1 min. 5 μL of the diluted compound was transferred to a cell plate (PerkinElmer-6008280) with Bravo, 5 μL of 2 μM DAMGO (the final concentration was 1 μM) was transferred to positive control wells, and an equal volume of experimental buffer was transferred to negative control wells, and the cell plate was centrifuged at 1000 rpm for 1 min. The cell plate was sealed and incubated at room temperature for 15 min. Forskolin was diluted to 0.2 mM with DMSO, 25.1 nL of which was transferred to a cell plate with Tecan-D300e, and the plate was centrifuged at 1000 rpm for 1 min, sealed, and incubated at room temperature for 45 min.
The final concentration of the initial point was 712 nM.
1.3.2.4 Preparation of detection reagent: an appropriate amount of a cAMP-d2 stock solution and an anti-cAMP-cryptate stock solution was diluted with a lysis buffer according to the ratio of 1:20, the two solutions were then mixed well by turning the solutions upside down according to the ratio of 1:1, and vortexing was prohibited. 10 μL of the prepared detection reagent was added to a cell plate and centrifuged at 1000 rpm for 1 min. The cell plate was incubated at room temperature for 1 h in the dark. After the cell plate was centrifuged at 1000 rpm for 1 min, the plate was read using Envision. Excitation light at 340 nm, emission light at 620 nm and 665 nm.
The formula for calculating the compound activation rate in the agonist test: […]

MOR beta-arrestin = biological target: T2, MOR beta-arrestin (Homo sapiens, UniProt P35372); assay: MOR beta-arrestin agonist test (PathHunter, U2OS/OPRM1 cell line); format: cell-based; conditions: Human Mu opioid β-arrestin U2OS/OPRM1 cell line; for Emax: maximal effect of DAMGO is 100%, read-out: Emax for activating beta-arrestin signaling pathway; for EC50: read-out: EC50 for activating beta-arrestin signaling pathway
T2 construct: expressed in transfected cells; host or cells: MOR beta-arrestin cell strain (U2OS/OPRM1 PathHunter per the earlier reading), kept under Hygromycin B and G418 selection
T2 sequence (P35372 whole entry): as above
Method: • Cell complete medium: MEM+10% FBS+1% PS+250 μg/mL Hygromycin B+500 μg/mL G418 +1×GlutaMAX • Cell inoculation medium: MEM+10% FBS+1% PS • Experimental buffer: 1×DPBS+0.1% BSA • Detection reagent: Galacton Star:Emerald II:PathHunter cell assay buffer=1:5:19
• i) Compound samples were dissolved in DMSO to a stock concentration of 10 mM; • ii) A sample dilution sequence on a 384-well LDV plate was prepared, wherein the first concentration point of the sample was 10 mM (FAC=30 μM), and the sample was serially diluted 3.162-fold to obtain a total of 11 concentration points; • iii) The sample dilution sequence and HPE and ZPE were transferred to a compound plate (PE #6008590) using an Echo machine, with each well 90 nL transferred.
• i) The MOR beta-arrestin cell strain was cultured in a cell complete medium at 37° C. with 5% CO2 to a confluence of 70-90%; • ii) the cells were digested and resuspended in the cell inoculation medium, and 20 μL of the MOR beta-arrestin cell suspension was added to each well of an assay plate (Corning #3570) at 7500 cells/well and incubated in an incubator at 37° C. with 5% CO2 for 24 h; • iii) 30 μL of an experimental buffer was added to a compound plate (PE #6008590), and the plate was centrifuged at 1000 rpm for 5 min; • iv) after 24 h, the assay plate was taken out, the medium was removed from the plate, and then 20 μL of the compound was transferred from each corresponding well of the compound plate to the assay plate with Bravo; • v) the assay plate was centrifuged at 500 rpm for 30 s and then placed into an incubator for incubation at 37° C. with 5% CO2 for 90 min; • vi) 10 μL of the beta-arrestin detection reagent was added to each well of the assay plate; • vii) after 1 h of incubation at room temperature in the dark, the plate was read on Envision.
The experimental data of the percent activation rate and concentrations of 11 points were fitted using XLFit to a parameter nonlinear logic
Use formula to calculate the EC50 value of the compound, and the results are shown in Table 7 (maximal effect of DAMGO is 100%).

[1] = test system: pain threshold of a mouse; assay: Mouse thermal radiation tail-flick method; format: in vivo, ICR mice; conditions: for Maximum analgesic percentage (% MPE): ICR mice, intragastric 10 mg/kg, Mean ± SEM, n = 9-10
Method: • Intragastric administration at a dose of 10 mg/kg;
ICR mice (normal grade, weighed 25-35 g, purchased from Shanghai Slac Laboratory Animal Co., Ltd.) were first mounted in a special plastic cylinder, their tails were exposed and allowed to droop naturally, and the measurements were made after the animals were calm. The radiation heat source could be an 8.75 mm projection lamp (32 W, adjustable). A light beam with the diameter of about 4 mm was emitted after being focused by a lens, which irradiated the skin at the junction of the middle third and the lower third of the tail (the light source and the skin at the tail must be closely attached); an electronic timer connected with the light source in parallel was used to synchronously record the irradiation duration, that is, when the irradiation started, a stopwatch was automatically started at the same time. When the tail of the animal obviously evaded, the timing was automatically stopped. The measured time interval was the tail flick latency. Mice with tail flick latency of 2-6 seconds were screened to participate in a grouping administration experiment. […] After a dose of a drug was administered to the mice, the pain threshold of the mice was measured at different times.
After a dose of a drug was administered to the mice, the pain threshold of the mice was measured at 0.5 h, 1 h, 2 h, and 3 h (effect view of the analgesic effect is shown in FIG. 1). The formula for calculating the maximum analgesic percentage (% MPE) after administration was as follows: % MPE=(post-administration pain threshold−pre-administration pain threshold)/(15−pre-administration pain threshold)×100%.

| SMILES | EC50 (MOR) [nM] | Emax (MOR) [%] | Emax (MOR beta-arrestin) [%] | EC50 (MOR beta-arrestin) [µM] | Maximum analgesic percentage (% MPE) ([1]; 0.5 h after administration) [%] | Maximum analgesic percentage (% MPE) ([1]; 1 h after administration) [%] | Maximum analgesic percentage (% MPE) ([1]; 2 h after administration) [%] | Maximum analgesic percentage (% MPE) ([1]; 3 h after administration) [%] | Maintenance of the analgesic effect compared with oxycodone ([1]; mouse tail flick, 0.5-3 h after administration) | Drug effect compared with oxycodone ([1]; mouse tail flick, same dose (10 mg/kg intragastric)) |
| --- | --- | --- | --- | --- | --- | --- | --- | --- | --- | --- |
| Fc1ccc([C@]2(CCNC3Cc4ccccc4C3)CCOC3(CCOCC3)C2)nc1 [Compound 8-1, (R)—N-(2-(4-(5-fluoropyridin-2-yl)-1,9-dioxaspiro[5.5]undecan-4-yl)ethyl)-2,3-dihydro-1H-inden-2-amine] | 4.1 | 92.8 | 3 | > 30 | 80.64 ± 9.27 | 85.69 ± 5.95 | 69.94 ± 10.43 | 87.16 ± 6.80 | maintained for a longer period of time | better drug effect than oxycodone |
| Fc1ccc(C2(CCNC3Cc4ccccc4C3)CCOC3(CCOCC3)C2)nc1 (stereo not drawn) [Compound 8, N-(2-(4-(5-fluoropyridin-2-yl)-1,9-dioxaspiro[5.5]undecan-4-yl)ethyl)-2,3-dihydro-1H-inden-2-amine] | 8.62 | 72 | 2.1 | 0.364 |  |  |  |  |  |  |
| Fc1ccc([C@]2(CCNCc3cccc(Cl)c3Cl)CCOC3(CCOCC3)C2)nc1 [Compound 13-1, (R)—N-(2,3-dichlorobenzyl)-2-(4-(5-fluoropyridin-2-yl)-1,9-dioxaspiro[5.5]undecan-4-yl)ethan-1-amine] | 18.7 | 78.6 | 4.2 | > 30 |  |  |  |  |  |  |
| Cc1c(Cl)cccc1CNCCC1(c2ccc(F)cn2)CCOC2(CCOCC2)C1 (stereo not drawn) [Compound 12, N-(3-chloro-2-methylbenzyl)-2-(4-(5-fluoropyridin-2-yl)-1,9-dioxaspiro[5.5]undecan-4-yl)ethan-1-amine] | 7.63 | 89.8 | 6.3 | > 30 |  |  |  |  |  |  |
| Fc1ccc(C2(CCNC3Cc4cccc(Br)c4C3)CCOC3(CCOCC3)C2)nc1 (stereo not drawn) [Compound 10, 4-bromo-N-(2-(4-(5-fluoropyridin-2-yl)-1,9-dioxaspiro[5.5]undecan-4-yl)ethyl)-2,3-dihydro-1H-inden-2-amine] | 2.79 | 80.9 | 4.5 | 4.8 |  |  |  |  |  |  |
| c1ccc(C2(CCNC3CCc4ccccc43)CCOC3(CCOCC3)C2)nc1 (stereo not drawn) [Compound 15, N-(2-(4-(pyridin-2-yl)-1,9-dioxaspiro[5.5]undecan-4-yl)ethyl)-2,3-dihydro-1H-inden-1-amine] | 30.7 | 96.9 | 7.2 | 1.78 |  |  |  |  |  |  |
